What is called IC50 is the concentration that inhibits the measured activity by half.

Some results are limits rather than exact numbers.

The first assay deals with T1, Gag-Pol polyprotein [600-1029,C879S]/[600-1159,C879S] (Human immunodeficiency virus 1, UniProt P03366, C879S).
T1 construct: 600-1029; 600-1159
The assay is described as follows: HIV-1 RT Assay.
Details: not given
`NC(=O)c1scnc1-c1cccc(I)c1` [4-(3-Iodophenyl)thiazole-5-carboxamide] showed an IC50 of more than 312 µM.

Regarding `NC(=O)c1[nH]cnc1-c1cccc(-c2ccccc2)c1` [4-(3-Phenylphenyl)-1H-imidazole-5-carboxamide], the IC50 was more than 312 µM.

The compound `NC(=O)c1scnc1-c1cccc(-c2ccccc2)c1` [4-(3-phenylphenyl)-1,3-thiazole-5-carboxamide] gave an IC50 of more than 312 µM.

Still in this assay, the particulars now being: pH 7.5; 37 °C.
In turn, `NC(=O)CC(=O)c1cccc(Cl)c1` [3-(3-Chlorophenyl)-3-oxopropanamide] showed an IC50 of more than 312 µM.

Regarding `NC(=O)CC(=O)c1cccc(C(=O)c2ccccc2)c1` [3-(3-Benzoylphenyl)-3-oxopropanamide], the IC50 is more than 312 µM.

In turn, `NC(=O)c1[nH]cnc1-c1cccc(C(=O)c2ccccc2)c1` [4-(3-Benzoylphenyl)-1H-imidazole-5-carboxamide] gave an IC50 of more than 312 µM.

Compound `N#CCC(=O)c1cccc(I)c1` [3-(3-Iodophenyl)-3-oxopropanenitrile] returned an IC50 of more than 312 µM.

Turning to `NC(=O)CC(=O)c1cccc(-c2ccccc2)c1` [3-Oxo-3-(3-phenylphenyl)propanamide], the IC50 is more than 312 µM.

In the case of `N#CCC(=O)c1ccc(Cl)c(Br)c1` [3-(3-Bromo-4-chlorophenyl)-3-oxopropanenitrile], the IC50 was more than 312 µM.

The values are drawn from BindingDB's records for doi:10.1021/jm0613121 (Bar-Ilan University, 2007).
